ChEMBL document CHEMBL1201862, “PubChem BioAssay data set” (2004)
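Growth conditions: 96-well plates. Treatment: test compound, 48 hours, 5 concentrations. Analysis: linear interpolation between bracketing concentrations; unreached endpoints set to highest concentration. GI50 = concentration required for 50% inhibition of growth.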 Active and inactive are the calls of the source. Rule as the data show it: active = GI50 up to about 1.1 µM and inactive = higher.

Key:
Test in all cases: inhibition of tumour cell growth, NCI panel, 48 h
786-0 = system: 786-0
A549 = system: A549
ACHN = system: ACHN
CAKI-1 = system: CAKI-1
COLO 205 = system: COLO 205
DLD-1 = system: DLD-1
DMS-114 = system: DMS-114
DMS-273 = system: DMS-273
EKVX = system: EKVX
HCC 2998 = system: HCC 2998
HCT-116 = system: HCT-116
HCT-15 = system: HCT-15
HOP-18 = system: HOP-18
HOP-62 = system: HOP-62
HT-29 = system: HT-29
IGROV-1 = system: IGROV-1
K562 = system: K562
KM-20L2 = system: KM-20L2
KM12 = system: KM12
LOX IMVI = system: LOX IMVI
LXFL 529 = system: LXFL 529
M14 = system: M14
M19-MEL = system: M19-MEL
MOLT-4 = system: MOLT-4
Malme-3M = system: Malme-3M
NCI-H226 = system: NCI-H226
NCI-H23 = system: NCI-H23
NCI-H460 = system: NCI-H460
NCI-H522 = system: NCI-H522
OVCAR-3 = system: OVCAR-3
OVCAR-4 = system: OVCAR-4
OVCAR-5 = system: OVCAR-5
OVCAR-8 = system: OVCAR-8
RPMI-8226 = system: RPMI-8226
RXF 393 = system: RXF 393
SF-268 = system: SF-268
SF-295 = system: SF-295
SF-539 = system: SF-539
SK-MEL-28 = system: SK-MEL-28
SK-MEL-2 = system: SK-MEL-2
SK-MEL-5 = system: SK-MEL-5
SN12C = system: SN12C
SNB-19 = system: SNB-19
SNB-75 = system: SNB-75
SNB-78 = system: SNB-78
SR = system: SR
SW-620 = system: SW-620
TK-10 = system: TK-10
U-251 = system: U-251
UACC-257 = system: UACC-257
UACC-62 = system: UACC-62
UO-31 = system: UO-31
XF498 = system: XF498
A498 = system: A498
CCRF-CEM = system: CCRF-CEM
HL-60 = system: HL-60
HOP-92 = system: HOP-92
SK-OV-3 = system: SK-OV-3

CCOC(=O)[C@H]1Nc2ccc(Cl)cc2[C@H]2CCC[C@@H]12
GI50 (786-0): > 100 µM (inactive)
GI50 (A549): 88.3 µM (inactive)
GI50 (ACHN): > 100 µM (inactive)
GI50 (CAKI-1): 86.9 µM (inactive)
GI50 (COLO 205): > 100 µM (inactive)
GI50 (DLD-1): > 100 µM (inactive)
GI50 (DMS-114): 95.3 µM (inactive)
GI50 (DMS-273): > 100 µM (inactive)
GI50 (EKVX): 92.3 µM (inactive)
GI50 (HCC 2998): > 100 µM (inactive)
GI50 (HCT-116): > 100 µM (inactive)
GI50 (HCT-15): > 100 µM
GI50 (HOP-18): 53.2 µM (inactive)
GI50 (HOP-62): > 100 µM (inactive)
GI50 (HT-29): 36.7 µM (inactive)
GI50 (IGROV-1): > 100 µM (inactive)
GI50 (K562): > 100 µM (inactive)
GI50 (KM-20L2): > 100 µM (inactive)
GI50 (KM12): > 100 µM (inactive)
GI50 (LOX IMVI): > 100 µM (inactive)
GI50 (LXFL 529): > 100 µM (inactive)
GI50 (M14): > 100 µM (inactive)
GI50 (M19-MEL): > 100 µM (inactive)
GI50 (MOLT-4): > 100 µM (inactive)
GI50 (Malme-3M): > 100 µM (inactive)
GI50 (NCI-H226): > 100 µM (inactive)
GI50 (NCI-H23): > 100 µM (inactive)
GI50 (NCI-H460): > 100 µM (inactive)
GI50 (NCI-H522): 31.5 µM (inactive)
GI50 (OVCAR-3): 61.4 µM (inactive)
GI50 (OVCAR-4): 56.9 µM (inactive)
GI50 (OVCAR-5): 63.5 µM (inactive)
GI50 (OVCAR-8): > 100 µM (inactive)
GI50 (RPMI-8226): > 100 µM (inactive)
GI50 (RXF 393): 17.9 µM (inactive)
GI50 (SF-268): > 100 µM (inactive)
GI50 (SF-295): 55.3 µM (inactive)
GI50 (SF-539): > 100 µM (inactive)
GI50 (SK-MEL-28): > 100 µM (inactive)
GI50 (SK-MEL-2): > 100 µM (inactive)
GI50 (SK-MEL-5): 71.6 µM (inactive)
GI50 (SN12C): > 100 µM (inactive)
GI50 (SNB-19): > 100 µM (inactive)
GI50 (SNB-75): 72.3 µM (inactive)
GI50 (SNB-78): > 100 µM (inactive)
GI50 (SR): > 100 µM (inactive)
GI50 (SW-620): > 100 µM (inactive)
GI50 (TK-10): > 100 µM (inactive)
GI50 (U-251): > 100 µM (inactive)
GI50 (UACC-257): 22 µM (inactive)
GI50 (UACC-62): > 100 µM (inactive)
GI50 (UO-31): 99.8 µM (inactive)
GI50 (XF498): > 100 µM (inactive)

Cc1c(O)c(=O)ccn1CCO
GI50 (786-0): > 100 µM (inactive)
GI50 (A498): > 100 µM (inactive)
GI50 (A549): > 100 µM (inactive)
GI50 (ACHN): > 100 µM (inactive)
GI50 (CAKI-1): > 100 µM (inactive)
GI50 (CCRF-CEM): > 100 µM (inactive)
GI50 (COLO 205): > 100 µM (inactive)
GI50 (DLD-1): > 100 µM (inactive)
GI50 (DMS-114): > 100 µM (inactive)
GI50 (DMS-273): > 10 µM (inactive)
GI50 (EKVX): > 100 µM (inactive)
GI50 (HCT-116): > 100 µM (inactive)
GI50 (HCT-15): > 100 µM
GI50 (HL-60): > 100 µM (inactive)
GI50 (HOP-18): > 100 µM (inactive)
GI50 (HOP-62): > 100 µM (inactive)
GI50 (HOP-92): > 100 µM (inactive)
GI50 (HT-29): > 100 µM (inactive)
GI50 (K562): > 100 µM (inactive)
GI50 (KM-20L2): > 100 µM (inactive)
GI50 (KM12): > 100 µM (inactive)
GI50 (LOX IMVI): > 100 µM (inactive)
GI50 (LXFL 529): > 100 µM (inactive)
GI50 (M14): > 100 µM (inactive)
GI50 (M19-MEL): > 100 µM (inactive)
GI50 (MOLT-4): > 100 µM (inactive)
GI50 (Malme-3M): > 100 µM (inactive)
GI50 (NCI-H226): > 100 µM (inactive)
GI50 (NCI-H460): > 100 µM (inactive)
GI50 (NCI-H522): > 100 µM (inactive)
GI50 (OVCAR-3): > 100 µM (inactive)
GI50 (OVCAR-4): > 100 µM (inactive)
GI50 (OVCAR-5): > 100 µM (inactive)
GI50 (OVCAR-8): > 100 µM (inactive)
GI50 (RPMI-8226): > 100 µM (inactive)
GI50 (RXF 393): > 100 µM (inactive)
GI50 (SF-268): > 100 µM (inactive)
GI50 (SF-295): > 100 µM (inactive)
GI50 (SK-MEL-28): > 100 µM (inactive)
GI50 (SK-MEL-2): > 100 µM (inactive)
GI50 (SK-MEL-5): > 100 µM (inactive)
GI50 (SK-OV-3): > 100 µM (inactive)
GI50 (SN12C): > 100 µM (inactive)
GI50 (SNB-19): > 100 µM (inactive)
GI50 (SNB-75): > 100 µM (inactive)
GI50 (SNB-78): > 100 µM (inactive)
GI50 (SR): > 100 µM (inactive)
GI50 (SW-620): > 100 µM (inactive)
GI50 (TK-10): > 100 µM (inactive)
GI50 (U-251): > 100 µM (inactive)
GI50 (UACC-257): > 100 µM (inactive)
GI50 (UACC-62): > 100 µM (inactive)
GI50 (UO-31): > 100 µM (inactive)
GI50 (XF498): > 100 µM (inactive)
